One substance from EP3070175A1, “TEST FOR DETERMINING SUSCEPTIBILITY OR RESISTANCE TO POLYMYXINS IN ENTEROBACTERIACEAE” (Université de Fribourg, priority 2015, dated 2016) can be followed below.

The test system of the assay is enterobacterial strains. As to the kind of experiment: Polymyxin test: colorimetric detection of growth with polymyxin B as selective antibiotic. It counts as cell-based, Enterobacteriaceae. The note with it: polymyxin B instead of colistin as selective antibiotic; all tested strains. On the procedure:
Each inoculum was prepared by mixing 1 öse (10 µl) of a fresh culture of the tested bacteria in 5 ml of sterile NaCl 0.85% (at a density of 3 Mac Farland, i.e. about 10^9 CFU/ml).
250 ml of reactive medium was prepared by mixing the compounds hereafter: • a broth powder of a non selective growth medium for bacteria, the Cation-Adjusted Mueller-Hinton broth (MHB-CA) : 6.25 g • a colour indicator, the phenol red : 0.0125 g • sterile distilled water 225 ml • sterile D (+)-glucose (10 %) anhydrous (sterilization by filtration) : 25 ml
The pH of the final reactive medium was adjusted to 6.6 and 6.7 with HCl 1M.
Colistin or polymyxin B was added or not at the concentration of 5 mg/L in the reactive medium. Standard colistin sulphate and polymyxin B were from Sigma Aldrich (Saint-Louis, France). Those antibiotic molecule powders were kept at 4°C before their use, whereas polymyxin dilutions were kept at -20°C.
For each strain, two wells of a plastic sterile plate with 96 shaped wells were inoculated in parallel with and without polymyxin (colistin sulphate or polymyxin B) in order to compare their colour change.
Plastic sterile plates were from Sarstedt (Nümbrecht, Germany). The tray may be prepared as follows : • 1. […]
The results of the tests were recorded at 10 min (checking for no spontaneous colour change in the well) and then every hour for a maximum of 4 hours by visual inspection. […]

On to polymyxin B, for which the “Results of the method of the invention compared with colistin” value is listed as “Identical results”.
